The source of these data is EP3056202A1, “BENZOPYRROLIDONE DERIVATIVES POSSESSING ANTIVIRAL AND ANTICANCER PROPERTIES” (Max-Planck-Gesellschaft zur Förderung der Wissenschaften …, priority 2015, dated 2016).

Each structure is given as a SMILES string. ≈ marks a conversion by molar mass, not a printed value.

The target in data set [1] is human Akt1 kinase (Homo sapiens, UniProt P31749). The experiment in a line: In vitro Akt1 assay (IMAP fluorescence polarization, phosphorylation of TAMRA-peptide). The conditions noted are these: 40 µM ATP; for inhibition at 12.5 µM: 12.5 uM compound, read-out: Akt1 inh% @12.5 uM. In kind it is biochemical. The procedure:
The inhibition of Akt1 by the compounds described in the present invention were determined measuring the phosphorylation of a fluorescently-labeled peptide (TAMRA-peptide) by human Akt1 kinase by fluorescent polarization using a commercially available IMAP Screening Express Assay Kit (Molecular Devices).
Akt1 kinase assays were performed in low protein binding 384-well plates (Corning). Test compounds were diluted in 100% DMSO to 5 mM stock concentration and then further dilutions were made in H2O or 100% DMSO to desirable concentrations.
Each reaction consisted of 5 nM enzyme: Akt1 kinase, 400 nM TAMRA-peptide (5-TAMRA-GRTGRRNSI-COOH; Genecust), 40 µM ATP and kinase buffer: 20 mM MES pH6, 1 mM DTT, 10 mM MgCl2, 2 mM MnCl2, 0.01 V/V% TritonX (all reagents from Sigma-Aldrich).
For each reaction, 4 or 6 µl containing TAMRA-peptide, ATP and kinase buffer were combined with 2 µl diluted compound in H2O or 0.02 µl compound in 100% DMSO. The kinase reaction was started by the addition of 2 µl diluted enzyme. The reaction was allowed to run for 1 hour at room temperature. The reaction was stopped by adding 15 µl IMAP beads (1:400 beads in progressive (75% buffer A, 25% buffer B) 1x buffer). After an additional hour, fluorescent polarization (Ex: 550-10 nm, Em: 590-10 nm, Dich: 561 nm) was measured using an Analyst GT (Molecular Devices).
A general note: Fluorescence polarisation rises when a labelled molecule tumbles more slowly, as on binding a larger partner.

Data set [2] concerns HepG2 hepatoblastomaderived cell line. The data set is described as follows: In vitro growth inhibition, HepG2 (CellTiter-Glo). The data set is classed as cell-based. Conditions: Homo sapiens, 72 hours incubation.
Data set [3] can be described thus: physchem. The data set is classed as physicochemical. Conditions: kinetic from dmso stock. The procedure: Samples were diluted in DMSO (control), phosphate buffer pH = 7.4 and pH = 2.0, from 5mM stock solutions (solved in DMSO), with a 120 µM final concentration. The samples were incubated for 24 hours at room temperature followed by 30 minutes centrifugation at 3700 rpm. 40 µl of the supernatants were injected into HPLC (Waters 2795 Alliance HPLC equipped with Waters 996 PDA Detector (HPLC column: Waters XBridge, RP C18, 3.5 µm, 4.6 mm x 50 mm; gradient MeCN/H2O, containing 0.1% HCOOH: 5% MeCN (0.5 min), 5% to 95% MeCN (5 min), 95% MeCN (0.5 min); flow rate: 2.0 ml/min)) and the AUC values (measured on sample specific wavelength) of the buffered samples were divided by the AUC values (same wavelength as buffered samples') of the DMSO control samples. Table 3: Solubility in water for several compounds according to general formula (I)

Data set [4] deals with T1, human Clk1 kinase (Homo sapiens, UniProt P49759).
T1 construct: Each reaction consisted of 4 nM enzyme: Clk1 kinase domain
The data set is described as follows: In vitro Clk1 assay (IMAP fluorescence polarization). In kind it is biochemical. The conditions noted are these: 0.45 µM ATP. How it is done:
The activity of the compounds described in the present invention can be determined by the following kinase assay, which measures the phosphorylation of a fluorescently-labeled peptide by human Clk1 kinase by fluorescent polarization using a commercially available IMAP Screening Express Assay Kit (Molecular Devices).
Clk1 kinase assays were performed in low protein binding 384-well plates (Corning). Test compounds were diluted in 100% DMSO to 5 mM stock concentration and then further dilutions were made in H2O or 100% DMSO to desirable concentrations.
Each reaction consisted of 4 nM enzyme: Clk1 kinase domain, 400 nM TAMRA-AFRREWSPGKEAKK-NH2 (Genecust), 0.45 µM ATP (Sigma) and kinase buffer: 20 mM TRIS pH 8, 1 mM DTT, 0.4 mM MgCl2, 0.4 mM MnCl2, 0.01 V/V% Tween20 (all reagents from Sigma-Aldrich)
For each reaction, 4 or 6 µl containing TAMRA-peptide, ATP and kinase buffer were combined with 2 µl diluted compound in H2O or 0.02 µl compound in 100% DMSO. The kinase reaction was started by the addition of 2 µl diluted enzyme. The reaction was allowed to run for 1 hour at room temperature. The reaction was stopped by adding 15 µl IMAP beads (1:600 beads in progressive (80 % buffer A, 20% buffer B) 1x buffer). After an additional hour, fluorescent polarization (Ex: 550-10 nm, Em: 590-10 nm, Dich: 561 nm) was measured using an Analyst GT (Molecular Devices).

In data set [5] the target is human Ack1 kinase (Homo sapiens, UniProt Q07912). The data set is described as follows: In vitro Ack1 assay (TranScreener ADP2 FP, generation of ADP). In kind it is biochemical. The conditions noted are these: 12.5 uM compound; 3.5 µM ATP; read-out: Ack1 inh% @12.5 uM. How it is done:
The activity of the compounds described in the present invention can be determined by the following kinase assay, which measures the generation of ADP by human Ack1 kinase by fluorescent polarization using a commercially available TranScreener ADP2 FP Assay Kit (BellBrook Labs).
Ack1 kinase assays were performed in low protein binding 384-well plates (Corning). Test compounds were diluted in 100% DMSO to 5 mM stock concentration and then further dilutions were made in H2O or 100% DMSO to desirable concentrations.
Each reaction consisted of 5 nM enzyme: Ack1 kinase, Poly Glu-Tyr (4:1) (Sigma), 3.5 µM ATP and kinase buffer: 20 mM HEPES pH7.5, 1 mM DTT, 2 mM MgCl2, 0.4 mM MnCl2, 0.01 V/V% Tween20 (all reagents from Sigma-Aldrich)
For each reaction, 4 or 6 µl containing Poly Glu-Tyr (4:1), ATP and kinase buffer were combined with 2 µl diluted compound in H2O or 0.02 µl compound in 100% DMSO. The kinase reaction was started by the addition of 2 µl diluted enzyme. The reaction was allowed to run for 1 hour at room temperature. The reaction was stopped by addition of 8 µl ADP detection mixture (1 x) (1 x Detection buffer + 4.78 µg/ml ADP2 Ab + 4 nM ADP Alexa633 Tracer). After an additional hour, fluorescent polarization (Ex: 630-35 nm, Em: 680-30 nm, Dich: 650 nm) was measured using an Analyst GT (Molecular Devices).

The subject of data set [6] is H1 N1 influenza virus strain A/WSN/33. The data set is described as follows: microbe, parasite or virus in culture. In kind it is cell-based. Conditions: 36 h, read-out: Influenza replication IC50.
In data set [7] the test system is A549 human lung carcinoma cells. The data set is described as follows: Cell-based EC50 determination, A549 cells (CellTiter-Glo cell viability). The conditions noted are these: A549, 24 h, read-out: A549 EC50 24h. How it is done:
A549 human lung carcinoma cells were cultured in RPMI 1640 medium (Sigma) supplemented with 10% fetal bovine serum (Sigma) and Antibiotic-Antimycotic (Sigma) in tissue culture flasks at 37°C in a humidified 5% CO2 atmosphere. Cells were routinely assayed for mycoplasma contamination.
Two thousand cells were plated in 384-well tissue culture plates, and treated after 24 hours with a 10-point dilution series of the compounds (1.5 nM-30 uM), using the vehicle, DMSO as control. Cells were incubated for 24 hours after which the relative cell density was determined by CellTiter-Glo Luminescent Cell Viability Assay (Promega). This method determines the number of metabolically active cells in the culture based on quantitation of the ATP present. The luminescent signal was measured with an Analyst GT multimode reader (Molecular Devices). […]
(In general: Cellular ATP, detected with luciferase, serves as a proxy for viable cell number.)

Data set [8] deals with HCT-116 human colon carcinoma cell line. The data set is described as follows: In vitro growth inhibition of colon carcinoma cells, HCT-116 (CellTiter-Glo). In kind it is cell-based. Conditions: 72 hours incubation, read-out: HCT116 EC50.
Data set [9] deals with HKE3 human colon carcinoma cell line. The data set is described as follows: In vitro growth inhibition of colon carcinoma cells, HKE3 (CellTiter-Glo). In kind it is cell-based. The conditions noted are these: 72 hours incubation.

Sequence of human Akt1 kinase (P31749 whole entry): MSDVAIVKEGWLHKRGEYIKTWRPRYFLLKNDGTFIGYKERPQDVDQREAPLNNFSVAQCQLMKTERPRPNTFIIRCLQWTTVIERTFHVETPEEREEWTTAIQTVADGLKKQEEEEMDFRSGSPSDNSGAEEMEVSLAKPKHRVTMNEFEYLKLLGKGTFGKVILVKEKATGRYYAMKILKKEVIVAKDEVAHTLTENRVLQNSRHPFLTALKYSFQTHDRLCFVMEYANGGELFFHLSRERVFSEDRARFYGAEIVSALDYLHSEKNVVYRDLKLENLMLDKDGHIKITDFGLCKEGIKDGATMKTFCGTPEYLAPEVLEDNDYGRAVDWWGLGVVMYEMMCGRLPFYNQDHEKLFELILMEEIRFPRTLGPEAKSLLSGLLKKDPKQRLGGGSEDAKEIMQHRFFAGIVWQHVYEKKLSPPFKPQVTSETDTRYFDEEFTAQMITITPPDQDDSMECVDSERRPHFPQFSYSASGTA
Sequence of human Ack1 kinase (Q07912 whole entry): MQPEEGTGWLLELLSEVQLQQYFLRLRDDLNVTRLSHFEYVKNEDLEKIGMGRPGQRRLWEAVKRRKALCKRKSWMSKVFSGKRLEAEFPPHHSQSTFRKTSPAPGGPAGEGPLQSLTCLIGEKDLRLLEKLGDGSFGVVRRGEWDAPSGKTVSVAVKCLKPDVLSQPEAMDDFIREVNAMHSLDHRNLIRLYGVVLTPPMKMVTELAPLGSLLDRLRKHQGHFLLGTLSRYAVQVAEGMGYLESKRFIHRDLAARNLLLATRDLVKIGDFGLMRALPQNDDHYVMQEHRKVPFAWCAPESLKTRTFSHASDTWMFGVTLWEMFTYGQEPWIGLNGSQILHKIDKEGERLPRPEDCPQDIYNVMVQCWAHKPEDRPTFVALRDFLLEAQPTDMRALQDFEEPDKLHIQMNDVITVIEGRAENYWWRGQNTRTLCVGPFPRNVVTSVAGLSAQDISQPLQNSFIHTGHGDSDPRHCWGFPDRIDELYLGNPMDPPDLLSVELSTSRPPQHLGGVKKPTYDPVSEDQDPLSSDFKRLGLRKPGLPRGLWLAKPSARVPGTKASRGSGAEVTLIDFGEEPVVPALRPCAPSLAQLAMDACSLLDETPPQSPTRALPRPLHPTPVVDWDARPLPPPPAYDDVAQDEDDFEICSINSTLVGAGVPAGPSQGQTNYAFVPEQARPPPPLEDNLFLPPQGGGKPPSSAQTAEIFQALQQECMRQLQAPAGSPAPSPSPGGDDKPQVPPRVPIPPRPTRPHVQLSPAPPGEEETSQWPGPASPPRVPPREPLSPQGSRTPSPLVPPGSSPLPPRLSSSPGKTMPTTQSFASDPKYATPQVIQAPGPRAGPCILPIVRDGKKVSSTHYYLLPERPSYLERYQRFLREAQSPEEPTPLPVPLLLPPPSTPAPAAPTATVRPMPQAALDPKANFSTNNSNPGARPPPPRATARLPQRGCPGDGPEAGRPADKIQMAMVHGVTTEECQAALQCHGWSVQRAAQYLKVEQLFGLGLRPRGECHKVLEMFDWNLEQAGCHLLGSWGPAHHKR
T1 sequence (P49759 161-477 limits assumed): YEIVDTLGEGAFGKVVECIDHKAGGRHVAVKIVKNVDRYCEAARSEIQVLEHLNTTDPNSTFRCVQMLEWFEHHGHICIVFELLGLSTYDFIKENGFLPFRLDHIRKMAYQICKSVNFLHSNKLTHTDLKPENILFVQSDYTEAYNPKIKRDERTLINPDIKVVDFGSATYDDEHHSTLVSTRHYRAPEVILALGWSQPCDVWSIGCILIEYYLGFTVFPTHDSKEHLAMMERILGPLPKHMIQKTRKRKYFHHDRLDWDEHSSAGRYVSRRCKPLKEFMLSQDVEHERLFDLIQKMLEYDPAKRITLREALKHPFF

Broadly, the IC50 is the midpoint of a concentration-inhibition curve. In general, EC50 refers to the concentration needed to bring the measured effect to its halfway point. What is called solubility is the dissolved amount per volume that the medium holds. With `C[C@@H](NC(=O)c1ccc2c(c1)/C(=C(/Nc1cccc(CN3CCCCC3)c1)c1ccccc1)C(=O)N2)c1ccccc1` [Compound 13, (3Z)-2-oxo-N-[(1R)-1-phenylethyl]-3-(phenyl{[3-(piperidin-1-ylmethyl)phenyl]amino}methylene)indoline-5-carboxamide], the inhibition at 12.5 µM in data set [1] was found to be 60.6%; in data set [5], 13.7%. Also, the values for the IC50 in data set [1], in [4] and in [6] were 5.94 µM, 0.03 µM and 0.16 µM, respectively. For the same molecule, the EC50 in data set [2] is 5.66 µM; in data set [7] it was 9.34 µM; in [8] it was 0.17 µM; in data set [9], 0.14 µM. The solubility at 24 h in [3] (pH 2, aqueous buffer) is 110 to 120 µM (≈ 61.2 to 66.8 µg/mL); in [3] (pH 7.4, aqueous buffer), below 10 µM.

With `COc1cccc([C@@H](C)NC(=O)c2ccc3c(c2)/C(=C(/Nc2cccc(CN4CCCCC4)c2)c2ccccc2)C(=O)N3)c1` [Compound 24, (3Z)-N-[(1R)-1-(3-methoxyphenyl)ethyl]-2-oxo-3-(phenyl{[3-(piperidin-1-ylmethyl)phenyl]amino}methylene)indoline-5-carboxamide], the inhibition at 12.5 µM in [1] was 76.8%; in data set [5] it was 13.7%. The IC50 in data set [1] was 0.88 µM; in data set [4], 0.08 µM; in data set [6] it was 0.42 µM. In addition, the concentration for a half-maximal effect (EC50) in data set [2] is 6.09 µM; in data set [7], 11.8 µM; in [8], 0.38 µM; in data set [9], 0.29 µM. The solubility at 24 h in data set [3] (pH 2, aqueous buffer) is 110 to 120 µM (≈ 64.5 to 70.4 µg/mL); in [3] (pH 7.4, aqueous buffer), below 10 µM.

Turning to `CC[C@@H](NC(=O)c1ccc2c(c1)/C(=C(/Nc1cccc(CN3CCCCC3)c1)c1ccccc1)C(=O)N2)c1ccccc1` [Compound 12, (3Z)-2-oxo-3-(phenyl{[3-(piperidin-1-ylmethyl)phenyl]amino}methylene)-N-[(1R)-1-phenylpropyl]indoline-5-carboxamide], the inhibition at 12.5 µM in [1] was found to be 75.1%; in data set [5], 18.1%. Besides, the values for the IC50 in data set [1], in data set [4] and in [6] were 7.98 µM, 0.21 µM and 0.01 µM, respectively. The EC50 in data set [2] came out at 3.52 µM; in [7], 6.89 µM; in [8] it was 0.03 µM; in [9], 0.02 µM. In addition, the solubility at 24 h was 110 to 120 µM (≈ 62.8 to 68.5 µg/mL) in [3] (pH 2, aqueous buffer) and below 10 µM in data set [3] (pH 7.4, aqueous buffer).

Regarding `Cc1ccc([C@@H](C)NC(=O)c2ccc3c(c2)/C(=C(/Nc2cccc(CN4CCCCC4)c2)c2ccccc2)C(=O)N3)cc1` [Compound 27, (3Z)-N-[(1R)-1-(4-methylphenyl)ethyl]-2-oxo-3-(phenyl{[3-(piperidin-1-ylmethyl)phenyl]amino}methylene)indoline-5-carboxamide], the inhibition at 12.5 µM in [1] is 81.3%; in [5], 9.9%. Further, the values for the IC50 in [1], in [4] and in [6] were 2.96 µM, 0.2 µM and 2.46 µM, respectively. The concentration for a half-maximal effect (EC50) in data set [2] is 5.24 µM; in [7], 25.4 µM; in data set [8] it was 1.41 µM; in data set [9], 1.32 µM. In addition, the solubility at 24 h in data set [3] (pH 2, aqueous buffer) was 110 to 120 µM (≈ 62.8 to 68.5 µg/mL); in data set [3] (pH 7.4, aqueous buffer), below 10 µM.

Turning to `COc1ccc([C@@H](C)NC(=O)c2ccc3c(c2)/C(=C(/Nc2ccc(CN4CCCCC4)cc2)c2ccccc2)C(=O)N3)cc1` [Compound 21, (3Z)-N-[(1R)-1-(4-methoxyphenyl)ethyl]-2-oxo-3-(phenyl{[4-(piperidin-1-ylmethyl)phenyl]amino}methylene)indoline-5-carboxamide], the results for the inhibition at 12.5 µM in [1] and in data set [5] were 78.2% and 87%, respectively. Moreover, the results for the 50% inhibitory concentration (IC50) in data set [1], in data set [4] and in data set [6] were 1.7 µM, 0.02 µM and 1.48 µM, respectively. The EC50 in data set [2] is 5.3 µM; in data set [7] it was above 30 µM; in data set [8], 0.41 µM; in [9], 0.32 µM. Further, the solubility at 24 h in data set [3] (pH 2, aqueous buffer) was 100 to 110 µM (≈ 58.7 to 64.5 µg/mL); in data set [3] (pH 7.4, aqueous buffer), below 10 µM.
